Measurements: ChEMBL document CHEMBL1201862, “PubChem BioAssay data set” (2004)
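Interpolation was linear, between the two tested concentrations surrounding the appropriate level; five concentrations were tested over 48 hours in 96-well plates. GI50 = concentration required for 50% inhibition of growth.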 Calls of active or inactive are those of the source. Cut-off read from the data, not from the text of the source: active = GI50 up to about 1.1 µM and inactive = higher.

What was measured:
Test in all cases: NCI anticancer screen, dose series, 48 h
NCI-H23 = system: NCI-H23
SW-620 = system: SW-620
SK-MEL-2 = system: SK-MEL-2
HOP-92 = system: HOP-92
NCI-H226 = system: NCI-H226
SK-MEL-5 = system: SK-MEL-5
SK-MEL-28 = system: SK-MEL-28
MDA-MB-231 = system: MDA-MB-231
HOP-62 = system: HOP-62
UO-31 = system: UO-31
UACC-257 = system: UACC-257
OVCAR-4 = system: OVCAR-4
SF-539 = system: SF-539
ACHN = system: ACHN
NCI/ADR-RES = system: NCI/ADR-RES
TK-10 = system: TK-10
SF-268 = system: SF-268
OVCAR-5 = system: OVCAR-5
HCC 2998 = system: HCC 2998
MDA-N = system: MDA-N

Measured: GI50

Nc1nc(-c2ccccc2/N=N/N2CCCC2)nc2ccccc12
inactive: NCI-H23 2.2 µM | SW-620 1.74 µM | SK-MEL-2 13.2 µM | HOP-92 8 µM | NCI-H226 2.22 µM | SK-MEL-5 4.5 µM | SK-MEL-28 12.2 µM | MDA-MB-231 1.58 µM | HOP-62 1.73 µM | UO-31 1.57 µM | UACC-257 3.51 µM | OVCAR-4 5.96 µM | SF-539 2.39 µM | ACHN 2.52 µM | NCI/ADR-RES 2.99 µM | TK-10 3.63 µM | SF-268 6.7 µM | OVCAR-5 1.86 µM

Cc1ccsc1/C=N/Nc1cnccn1
inactive: NCI-H23 > 100 µM | SW-620 > 100 µM | SK-MEL-2 > 100 µM | HOP-92 > 100 µM | HCC 2998 > 100 µM | NCI-H226 > 100 µM | SK-MEL-5 > 100 µM | SK-MEL-28 > 100 µM | MDA-MB-231 > 100 µM | HOP-62 > 100 µM | UO-31 > 100 µM | UACC-257 > 100 µM | OVCAR-4 > 100 µM | ACHN > 100 µM | NCI/ADR-RES > 100 µM | TK-10 > 100 µM | SF-268 > 100 µM | OVCAR-5 94 µM

CCCCCCc1cc2cc(C(=O)Nc3ccccc3F)c(=N)oc2cc1O
inactive: NCI-H23 3.18 µM | SW-620 12.6 µM | SK-MEL-2 7.21 µM | HCC 2998 18.7 µM | SK-MEL-5 3.19 µM | SK-MEL-28 7.69 µM | HOP-62 14.3 µM | MDA-N 7.29 µM | UO-31 4.27 µM | UACC-257 6.64 µM | OVCAR-4 4.93 µM | SF-539 12.6 µM | ACHN 6.08 µM | NCI/ADR-RES 2.64 µM | SF-268 12.4 µM | OVCAR-5 21.2 µM

C[C@@H]1CC[C@H]2[C@H](C)C(OC3O[C@@H]4O[C@@]5(C)CC[C@H]6[C@H](C)CC[C@@H]([C@@H]3C)[C@@]46O5)O[C@@H]3O[C@@]4(C)CC[C@@H]1[C@]32O4 (stereo not given in full)
inactive: NCI-H23 > 100 µM | SW-620 > 100 µM | SK-MEL-2 > 100 µM | HCC 2998 > 100 µM | NCI-H226 > 100 µM | SK-MEL-5 > 100 µM | SK-MEL-28 > 100 µM | MDA-MB-231 > 100 µM | HOP-62 > 100 µM | MDA-N > 100 µM | UACC-257 > 100 µM | OVCAR-4 > 100 µM | SF-539 > 100 µM | ACHN > 100 µM | TK-10 > 100 µM | SF-268 > 100 µM | OVCAR-5 > 100 µM

O=C(N/N=C\c1cccs1)c1ccncc1
inactive: NCI-H23 > 100 µM | SW-620 > 100 µM | SK-MEL-2 > 100 µM | HOP-92 > 100 µM | HCC 2998 > 100 µM | NCI-H226 > 100 µM | SK-MEL-5 > 100 µM | SK-MEL-28 > 100 µM | MDA-MB-231 > 100 µM | HOP-62 > 100 µM | UO-31 > 100 µM | UACC-257 > 100 µM | OVCAR-4 > 100 µM | SF-539 > 100 µM | ACHN > 100 µM | NCI/ADR-RES > 100 µM | TK-10 > 100 µM | SF-268 > 100 µM | OVCAR-5 > 100 µM

CCN(CC)CCNC(=O)c1cc2cc(NC(=O)c3cc4cc(NC(=O)c5cc6cc([N+](=O)[O-])ccc6[nH]5)ccc4[nH]3)ccc2[nH]1
inactive: NCI-H23 > 100 µM | SW-620 > 100 µM | SK-MEL-2 > 100 µM | HOP-92 > 100 µM | HCC 2998 > 100 µM | NCI-H226 > 100 µM | SK-MEL-5 > 100 µM | SK-MEL-28 > 100 µM | MDA-MB-231 > 100 µM | HOP-62 > 100 µM | UO-31 > 100 µM | UACC-257 > 100 µM | OVCAR-4 > 100 µM | ACHN > 100 µM | NCI/ADR-RES > 100 µM | TK-10 > 100 µM | SF-268 > 100 µM | OVCAR-5 > 100 µM

COc1ccc(NC2Oc3cc4c(cc3C(c3cc(OC)c(OC)c(OC)c3)C2C)OCO4)cc1 (stereo not given)
active: NCI-H23 0.847 µM | SW-620 0.428 µM | SK-MEL-2 0.538 µM | HOP-92 0.92 µM | HCC 2998 0.738 µM | NCI-H226 0.552 µM | SK-MEL-5 0.33 µM | MDA-MB-231 0.881 µM | HOP-62 0.294 µM | MDA-N 0.0811 µM | UO-31 0.891 µM | UACC-257 0.605 µM | OVCAR-4 0.566 µM | SF-539 0.222 µM | ACHN 0.897 µM | SF-268 0.959 µM
inactive: SK-MEL-28 1.32 µM | TK-10 5.33 µM | OVCAR-5 2.17 µM

C=C(CCOC)CCC1CCCCC(CN(C)C)C1=O (stereo not given)
inactive: NCI-H23 > 100 µM | SW-620 > 100 µM | SK-MEL-2 > 100 µM | HCC 2998 > 100 µM | NCI-H226 > 100 µM | SK-MEL-5 > 100 µM | SK-MEL-28 > 100 µM | MDA-MB-231 > 100 µM | HOP-62 > 100 µM | MDA-N > 100 µM | UO-31 > 100 µM | OVCAR-4 > 100 µM | ACHN > 100 µM | NCI/ADR-RES > 100 µM | SF-268 > 100 µM | OVCAR-5 > 100 µM

ClCCN(CCCl)c1ccc(CNCCCNCc2ccc(N(CCCl)CCCl)cc2)cc1
active: ACHN 0.521 µM
inactive: NCI-H23 3 µM | SW-620 3.03 µM | SK-MEL-2 2.17 µM | HOP-92 4.78 µM | HCC 2998 2.1 µM | NCI-H226 6.75 µM | SK-MEL-5 1.95 µM | SK-MEL-28 1.69 µM | MDA-MB-231 2.7 µM | HOP-62 2.54 µM | UO-31 2.06 µM | UACC-257 2.29 µM | SF-539 1.46 µM | NCI/ADR-RES 6.15 µM | TK-10 2.67 µM | SF-268 1.43 µM | OVCAR-5 3.97 µM

Cc1ccc(/N=N/C(=N/NC(=O)c2cc(Cl)ccc2C(=O)c2ccccc2)c2ccc(N(CCC#N)CCC#N)cc2C)cc1
inactive: NCI-H23 21.8 µM | SW-620 21.2 µM | SK-MEL-2 1.34 µM | HCC 2998 13.8 µM | NCI-H226 10.4 µM | SK-MEL-5 14 µM | SK-MEL-28 14.1 µM | MDA-MB-231 4.06 µM | HOP-62 15.6 µM | MDA-N 17 µM | UO-31 22.4 µM | UACC-257 15.9 µM | OVCAR-4 10.4 µM | ACHN 22 µM | NCI/ADR-RES 21.1 µM | TK-10 19.7 µM | SF-268 10.8 µM | OVCAR-5 21.3 µM

COC(=O)c1nc(-c2nc(CCNC(=O)OC(C)(C)C)sc2Cl)sc1Cl
inactive: NCI-H23 44.7 µM | SW-620 > 100 µM | HOP-92 6.62 µM | HCC 2998 > 100 µM | NCI-H226 33.3 µM | SK-MEL-5 31.8 µM | SK-MEL-28 70.1 µM | HOP-62 32.6 µM | MDA-N 49.9 µM | UO-31 89.7 µM | UACC-257 > 100 µM | SF-539 > 100 µM | ACHN 83.2 µM | NCI/ADR-RES 32.2 µM | TK-10 > 100 µM | SF-268 74.6 µM | OVCAR-5 > 100 µM

O=c1onc2c3ccccc3ncn12
inactive: NCI-H23 > 100 µM | SW-620 > 100 µM | SK-MEL-2 > 100 µM | HOP-92 > 100 µM | HCC 2998 > 100 µM | NCI-H226 > 100 µM | SK-MEL-5 > 100 µM | SK-MEL-28 > 100 µM | MDA-MB-231 > 100 µM | HOP-62 > 100 µM | UO-31 > 100 µM | UACC-257 > 100 µM | OVCAR-4 > 100 µM | SF-539 > 100 µM | ACHN > 100 µM | NCI/ADR-RES > 100 µM | TK-10 > 100 µM | SF-268 > 100 µM | OVCAR-5 > 100 µM

CC(O)(CCCCCl)c1nc2ccccc2s1 (stereo not given)
inactive: NCI-H23 > 100 µM | SW-620 > 100 µM | SK-MEL-2 > 100 µM | NCI-H226 > 100 µM | SK-MEL-5 51.4 µM | SK-MEL-28 > 100 µM | MDA-MB-231 96.4 µM | HOP-62 > 100 µM | MDA-N > 100 µM | UO-31 64.1 µM | UACC-257 > 100 µM | OVCAR-4 > 100 µM | SF-539 > 100 µM | ACHN > 100 µM | NCI/ADR-RES 98.2 µM | TK-10 > 100 µM | SF-268 52.8 µM | OVCAR-5 > 100 µM

CCc1cccc(C)c1NC(=O)C1=C(C)NC(C)=C(C(=O)Nc2c(C)cccc2CC)C1c1ccc2c(c1)OCO2
inactive: NCI-H23 16.5 µM | SW-620 20.2 µM | SK-MEL-2 15.1 µM | HOP-92 18.2 µM | HCC 2998 19.7 µM | NCI-H226 19.8 µM | SK-MEL-5 16.2 µM | SK-MEL-28 15.6 µM | HOP-62 20.7 µM | UO-31 15.3 µM | UACC-257 18.5 µM | OVCAR-4 20.1 µM | SF-539 19.7 µM | ACHN 15.5 µM | TK-10 26.6 µM | SF-268 20.3 µM | OVCAR-5 22 µM

CCC1C(=O)OCc2c1cc1n(c2=O)Cc2ccccc2-1 (stereo not given)
inactive: NCI-H23 > 100 µM | SW-620 > 100 µM | SK-MEL-2 > 100 µM | HOP-92 > 100 µM | HCC 2998 > 100 µM | NCI-H226 > 100 µM | SK-MEL-5 > 100 µM | SK-MEL-28 > 100 µM | HOP-62 > 100 µM | UO-31 > 100 µM | UACC-257 > 100 µM | OVCAR-4 > 100 µM | SF-539 > 100 µM | ACHN > 100 µM | TK-10 > 100 µM | SF-268 > 100 µM | OVCAR-5 > 100 µM
